Results from article PMC7443224, “An UPLC-MS/MS Method for Simultaneous Quantification of the Components of Shenyanyihao Oral Solution in Rat Plasma” (BioMed Research International, 2020).
Several values for one entry are separate records, joined by “and”; a condition that tells them apart may be missing. Equal entries are not always repeated.

Assay: Pharmacokinetic study in rat plasma after oral administration of Shenyanyihao oral solution (UPLC-MS/MS, noncompartmental)
Type: in vivo, Sprague-Dawley rats
Settings: for Cmax / Tmax / half-life / MRT: male, Sprague-Dawley; for Cmax: plasma; for MRT: read-out: MRT0‐∞
Description: Male Sprague-Dawley rats (180–220 g) were purchased from Shanghai SLAC Laboratory Animal Co., Ltd. (Shanghai, China) and housed in an environmentally controlled room with a natural light-dark cycle for 7 days before the experiment was carried out. The male Sprague-Dawley rats were randomly given a dose of 10 g/kg/day of Shenyanyihao oral solution by oral administration for pharmacokinetic experiments. All animal experiments were carried out according to the Guidelines for the Care and Use of Laboratory Animals and were approved by the Animal Ethics Committee of the Second Military Medical University.
The protein precipitation with methanol was applied for sample preparation. 50 μl of plasma spiked with 50 μl of mixed IS solution were thoroughly mixed with 100 μl methanol by vortexing for 30 s. The mixture was centrifuged at 12,000 rpm for 5 min. An aliquot of 100 μl from the supernatant was transferred and subsequently evaporated to dryness by vacuum concentration. Five μl of the supernatant was transferred for the UPLC-MS/MS analysis.
The analytes in plasma were measured by a simple and sensitive UPLC-MS/MS method. Chromatographic analysis was performed on an Agilent 1290 Infinity UPLC system consisting of a binary pump, a surveyor autosampling system, and a thermostatted column compartment. An Agilent Poroshell 120 EC-C18 column (3.0 mm × 100 mm, 2.7 μm) was used for chromatographic separation. The mobile phases of A (acetonitrile) and B (0.1% formic acid aqueous solution) were eluted at a flow rate of 0.4 ml/min with the following gradient conditions: 0-5 min, 50% A; 5-6 min, 50%-90% A; and 6-10 min, 90% A. The column temperature was maintained at 25°C, the autosampler was conditioned at 4°C, and the injection volume was 5 μl. The analysis time was 10 min per sample. An Agilent 6470 tandem mass spectrometer (Agilent Technologies, USA) equipped with an Agilent Jet Stream Technology (AJS) electrospray source interface (ESI) was used for MS detection. The mass spectrometric detection was optimized simultaneously in the positive and negative ion modes by multiple reaction monitoring (MRM). The main MS parameters of the ionized chamber are as follows: capillary voltage at 4000 V (positive)/3500 V (negative), gas temperature at 350°C, drying gas flow at 11 l/min, nebulizer pressure at 40 psi, sheath gas temperature at 400°C, and sheath gas flow at 11 l/min. Data acquisition and analysis were performed using the Agilent MassHunter WorkStation version B.07.00.
The rats were administered orally with Shenyanyihao oral solution. Blood samples from the ophthalmic venous plexus taken at 0.08, 0.17, 0.25, 0.33, 0.5, 1, 1.5, 2, 4, 6, 8, 12, 24, and 48 h after oral administration and at 0 h (predose) were collected (0.2 ml) into heparinized centrifuge tubes. The blood samples were immediately centrifuged at 4000 rpm at 4°C for 5 min, and the supernatant plasma was transferred into another tube and stored at -80°C until treatment.
Pharmacokinetic parameters were analyzed by a noncompartmental method using the WinNonlin7.0 pharmacokinetic program (Pharsight Corp., USA). The maximum concentration (Cmax) and time to reach the maximum concentration (Tmax ) were measured from values obtained from the concentration-time curve. All results were expressed as mean ± standard deviation (SD).

[1] = rat, po, 10 g/kg/day, rat plasma, oral administration of Shenyanyihao oral solution 10 g/kg/day, n = 6, mean ± SD
[2] = rat plasma, oral administration of Shenyanyihao oral solution 10 g/kg/day, n = 6, mean ± SD

| AUC0‐t (rat, in vivo, po, 10 g/kg/day) [ng/ml∗h] | AUC0‐∞ (rat, in vivo, po, 10 g/kg/day) [ng/ml∗h] | MRT0‐∞ (rat, in vivo, po, 10 g/kg/day) [h] | V d (rat, in vivo, po, 10 g/kg/day) [L/kg] | MRT0‐∞ [2] [h] | T max [2] [h] | t 1/2 [2] [h] | C max (rat plasma, oral administration of Shenyanyihao oral solution 10 g/kg/day, n = 6, mean ± SD, listed as stachydine) [µg/mL] | Compound | Cmax [1] [µg/mL] | Tmax [2] [h] | half-life [2] [h] | MRT [2] [h] | AUC0‐t [2] | AUC0‐∞ [2] | AUMC0‐∞ [2] [ng/ml∗h^2] | C max [2] [µg/mL] | CL [2] [L/h/kg] | V d [2] [L/kg] |
| --- | --- | --- | --- | --- | --- | --- | --- | --- | --- | --- | --- | --- | --- | --- | --- | --- | --- | --- |
| 76.39 ± 21.43 | 95.70 ± 25.36 | 12.50 ± 4.16 | 18.01 ± 5.2 | – | – | – | – | COc1cc(/C=C/C(=O)O)ccc1O [Ferulic acid, ferulic acid] | – | – | – | – | – | – | – | – | – | – |
| – | – | – | – | – | – | – | – | O=C(O)[C@H]1O[C@@H](Oc2cc3oc(-c4ccccc4)cc(=O)c3c(O)c2O)[C@H](O)[C@@H](O)[C@@H]1O [Baicalin, baicalin] | > 2.5 | 2.8 ± 1.1 | 5.01 ± 0.52 | 8.71 ± 2 | 26525.1 ± 15523.7 ng/ml∗h | 26566.8 ± 15520.4 ng/ml∗h | 229094.2 ± 146621.6 | 2.9834 ± 1.3443 | 1.71 ± 0.90 | 12.89 ± 8.01 |
| – | – | – | – | 12.82 ± 0.25 | 3.20 ± 1.10 | 9.09 ± 0.51 | > 2.5 | C[N+]1(C)CCC[C@H]1C(=O)[O-] [Stachydrine, stachydrine] | – | – | – | – | 39256.8 ± 4031.7 ng/ml∗h | 40196.0 ± 4088.2 ng/ml∗h | 515393.7 ± 55002.7 | 2.673 ± 0.163 | 0.06 ± 0.01 | 0.76 ± 0.11 |
| – | – | – | – | 12.76 ± 4.47 | 1.40 ± 0.22 | 12.33 ± 3.92 | – | O=C(/C=C/c1ccc(O)c(O)c1)O[C@H]1[C@H](O[C@@H]2O[C@H](CO)[C@@H](O)[C@H](O)[C@H]2O)[C@@H](O)[C@H](OCCc2ccc(O)c(O)c2)O[C@@H]1CO [Plantamajoside, plantamajoside] | – | – | – | – | 3.99 ± 0.44 ng/ml∗h | 5.01 ± 0.71 ng/ml∗h | 66.31 ± 28.63 | 0.00131 ± 0.00023 | 4.68 ± 0.77 | 79.97 ± 18.00 |
| – | – | – | – | – | – | – | – | O=C(O)c1ccc(O)c(O)c1 [Protocatechuic acid, protocatechuic acid] | 0.0262 ± 0.0116 | 0.5 | 11.3 ± 2.23 | 6.6 ± 2.26 | 41.96 ± 11.42 ng/ml∗h | 45.80 ± 12.60 ng/ml∗h | 307.02 ± 152.54 | – | 1.52 ± 0.47 | 24.09 ± 4.86 |
| – | – | – | – | – | – | – | – | O=c1cc(-c2ccccc2)oc2cc(O)c(O)c(O)c12 [Baicalein, baicalein] | 0.0143 ± 0.00259 | 3.6 ± 0.89 | 11.7 ± 4.78 | 15.2 ± 5.91 | 106.77 ± 46.19 ng/ml∗h | 128.95 ± 53.59 ng/ml∗h | 2190.95 ± 1741.10 | – | 8.72 ± 3.03 | 131.54 ± 23.79 |
| – | – | – | – | – | – | – | – | O=c1c(O[C@@H]2O[C@H](CO)[C@@H](O)[C@H](O)[C@H]2O)c(-c2ccc(O)c(O)c2)oc2cc(O)cc(O)c12 [Isoquercitrin, isoquercitrin] | 0.00165 ± 0.00023 | 0.5 | 26.4 ± 3.89 | 33.7 ± 3.63 | 4.75 ± 0.68 ng/ml∗h | 8.98 ± 1.33 ng/ml∗h | 304.35 ± 69.29 | – | 3.40 ± 0.50 | 127.91 ± 13.82 |
| – | – | – | – | – | – | – | – | O=C(/C=C/c1ccc(O)c(O)c1)O[C@@H]1C[C@](O)(C(=O)O)C[C@@H](O)[C@H]1O [Chlorogenic acid, chlorogenic acid] | 0.00353 ± 0.00052 | – | 16.7 ± 3.32 | 15.4 ± 3.31 | 17.05 ± 2.86 ng/ml∗h | 21.95 ± 3.34 ng/ml∗h | 338.84 ± 99.46 | – | 41.83 ± 6.79 | 1001.03 ± 202.53 |

| Compound | AUC0‐t (rat, in vivo, po, 10 g/kg/day) [ng/ml∗h] | AUC0‐∞ (rat, in vivo, po, 10 g/kg/day) [ng/ml∗h] | MRT0‐∞ (rat, in vivo, po, 10 g/kg/day) [h] | V d (rat, in vivo, po, 10 g/kg/day) [L/kg] | MRT0‐∞ [2] [h] | T max [2] [h] | t 1/2 [2] [h] | C max (rat plasma, oral administration of Shenyanyihao oral solution 10 g/kg/day, n = 6, mean ± SD, listed as stachydine) [µg/mL] | Cmax [1] [µg/mL] | Tmax [2] [h] | half-life [2] [h] | MRT [2] [h] | AUC0‐t [2] | AUC0‐∞ [2] | AUMC0‐∞ [2] [ng/ml∗h^2] | C max [2] [µg/mL] | CL [2] [L/h/kg] | V d [2] [L/kg] |
| --- | --- | --- | --- | --- | --- | --- | --- | --- | --- | --- | --- | --- | --- | --- | --- | --- | --- | --- |
| O=C(O)[C@H](O)Cc1ccc(O)c(O)c1 [Danshensu] | – | – | – | – | 3.56 ± 1.71 | – | 3.91 ± 2.34 | – | – | – | – | – | 556.04 ng/ml∗h and 556.04 ± 165.66 ng/ml∗h | 569.72 ng/ml∗h and 569.72 ± 165.31 ng/ml∗h | 2049.56 ± 1061.35 | 0.18179 ± 0.05958 | 2.47 ± 0.86 | 13.67 ± 8.51 |
